In patent publication US20260306460A1, “COMPOSITION FOR REMOVING AND INHIBITING SENESCENT CELLS, AND USES THEREOF” (LIFECEUTIX CO., LTD., priority 2023, published 2026):

Assays:
[1] = system: transplanted kidney of aged mice; assay: Efficiency of kidney transplantation from aged mice into young mice; type: in vivo, mouse
Protocol: Furthermore, the efficiency of kidney transplantation following the removal of senescent cells from the kidney was evaluated. Kidneys extracted from aged mice of Example 21-1, untreated and treated with LX-403, were transplanted into 3-month-old young mice. Three days later, the efficiency of kidney transplantation was assessed through analysis of markers of aging and kidney damage. […] This improvement in transplantation efficiency was also observed when kidneys extracted from aged mice were transplanted after removing senescent cells under ex vivo conditions, such as by culturing them in an LX-403-containing medium.

[2] = system: senescent A549 cells; assay: Viability of senescent A549 cancer cells (CellTiter-Glo), Example 12; type: cell-based, human; settings: 0 μM = 100
Protocol: Cells were treated with doxorubicin or control (DMSO) and cultured.
Cancer cells in which aging was induced by treatment with doxorubicin were treated with the test compound at designated concentrations and measured using the CellTiter-Glo Luminescent Cell Viability Assay (Promega).

[3] = system: HMGN1 secreted from senescent human cells; assay: HMGN1 secretion (ELISA) from doxorubicin-induced senescent human cells, Example 11; type: cell-based; settings: senescent untreated = 100%; 30 μM; 90 μM for LX-305, 1302, 1603, 2005, 2702, 2901, 3106; 270 μM for LX-1103, 2007
[4] = system: SAOS-2; assay: Suppression of doxorubicin-senescent SAOS-2 tumors in nude mice, Example 19; type: in vivo, mouse; settings: after DOX 10 mg/kg ip; 21 days daily; LX-5701 360 mg/kg po, LX-2101 20 mg/kg ip, LX-2102 10 mg/kg ip; DOX repeated as control
Protocol: Seven-week-old male BALB/c nude mice (KRIBB Laboratory Animal Resource Center) were acclimated to the experimental environment for one week, after which they were randomly assigned to experimental and control groups. Evaluation was performed using the same method as in Example 2-1 of WO2023-085787 A1. Cultured human osteosarcoma cell lines, SAOS-2 (10^6 cells), were mixed in phosphate-buffered saline (PBS) and administered subcutaneously to anesthetized mice using 2% isoflurane (Sigma). When the tumors reached approximately […], doxorubicin (10 mg/kg) was mixed in a 1:1 solution of distilled water and PBS (pH 7.2) and administered intraperitoneally to induce tumor senescence. After 10 days, LX-5701 mixed in PBS at a concentration of 360 mg/kg was administered orally daily for 21 days, or LX-2101 mixed in PBS solution with 5% DMSO at a concentration of 20 mg/kg or LX-2102 mixed in PBS with 5% DMSO at a concentration of 10 mg/kg was administered intraperitoneally daily for 21 days, and then the tumor size was measured. The control group was repeatedly administered a solution mixed with doxorubicin, and then the tumor size was measured.

[5] = system: naturally aged C57BL6J mice; assay: Serum IL6 and MCP1 (ELISA) in naturally aged mice, Example 21-5; type: in vivo, mouse; settings: untreated aged = 100, LX-5701 360 mg/kg po, LX-2101 20 mg/kg ip, LX-2102 10 mg/kg ip, daily 21 days
Protocol: 22-month-old female C57BL6J mice (KRIBB Laboratory Animal Resource Center) were acclimated to the experimental environment for one week, after which the aged mice were randomly assigned to experimental and control groups. Eight-week-old, non-aged mice served as controls. LX-403 was mixed in a 10% ethanol solution of PEG400 and administered orally at a concentration of 25 mg/kg daily for 21 days, or administered to the skin, joints, or eyes at a concentration of 1 μM. LX-1801 was mixed in distilled water with 4% DMSO, 30% PEG300, and 5% Tween80 and administered to the skin, joints, or eyes at a concentration of 0.4 μM daily for 21 days. LX-2001 was mixed in PBS and administered to the skin, joints, or eyes at a concentration of […] daily for 21 days. LX-2002 was mixed in distilled water with 4% DMSO, 30% PEG300, and 5% Tween80 and administered to the skin, joints, or eyes at a concentration of 2 μM daily for 21 days. […] LX-2005 was mixed in distilled water with 4% DMSO, 30% PEG300, and 5% Tween80 and administered to the skin, joints, or eyes at a concentration of 90 μM daily for 21 days. LX-2007 was mixed in distilled water with 4% DMSO, 30% PEG300, and 5% Tween80 and administered to the skin, joints, or eyes at a concentration of 90 μM daily for 21 days. […] LX-3002 was mixed in distilled water with 4% DMSO, 30% PEG300, and 5% Tween80 and administered orally at a concentration of 10 mg/kg daily for 21 days. […] LX-5411 was mixed in 5% PBS and administered orally at a concentration of 10 mg/kg daily for 21 days or administered to the skin, joints, or eyes at a concentration of 3 μM. LX-5701 was mixed in PBS and administered orally at a concentration of 360 mg/kg daily for 21 days. LX-6807 was mixed in saline and administered intraperitoneally at a concentration of 1 mg/kg daily for 21 days. LX-2101 or LX-2102 was mixed in PBS solution with 5% DMSO and administered intraperitoneally at a concentration of 20 mg/kg or 10 mg/kg, respectively, daily for 21 days. The control group received only the solution in the same volume. After the end of drug administration, the methods described in each example below were performed.
The amounts of IL6 and MCP1, senescence-associated secretory factors (SASPs), in serum collected from mice were measured using an enzyme-linked immunosorbent assay (ELISA Kit, R&D Systems).

[6] = system: SHR/Izm rats; assay: Geriatric hypertension in SHR/Izm rats (p16 mRNA, blood pressure), Example 30, Table 54; type: in vivo, rat; settings: for Blood pressure: tail cuff, untreated 195 (±13.3); for p16 mRNA: thoracic aorta, untreated 100%
Protocol: Ten-week-old male SHR/Izm rats (SLC), a model of essential hypertension, were acclimated to the experimental environment for one week. […] The control group received only the solution in the same volume. After drug administration, the blood pressure of the experimental animals was measured, and RNA was extracted from the thoracic aorta in the same manner as in Example 7-2 of WO2023-085787 A1. The synthesized cDNA was used for qRT-PCR. Blood pressure measurements were performed three times using a blood pressure monitor (IITC) after the animals were allowed to rest for approximately 10 minutes in a measuring holder with a cuff attached to the caudal vein. […] The mRNA levels after aging were calculated as 100% and compared with the mRNA levels of p16 after treatment with the test compound.

[7] = system: mice with peritoneal fibrosis induced by chlorhexidine gluconate; assay: Chlorhexidine gluconate (CHG) peritoneal fibrosis in mice, Example 20; type: in vivo, mouse
From the text: The anti-fibrosis activity of LX-5701 was confirmed using the same method as in Example 6-2 of WO2023-085787 A1. The thickness of the peritoneal mesothelial cell layer was quantitatively evaluated in mice with peritoneal fibrosis induced by chlorhexidine gluconate (CHG) under untreated and LX-5701-treated conditions.

Row | Compound | Tumor Diameter [4] | IL6 [5] | MCP1 [5] | Blood pressure [6] | p16 mRNA [6] | further results
1 | O=C(C(C[N+](=O)[O-])=NO)N1CCN(C(c2ccc(Cl)cc2)c2ccc(Cl)cc2)CC1 [LX-403] |  |  |  |  |  | p16 of transplanted kidney, serum urea and creatinine ([1]; 3 days after transplantation): reduced; efficiency of kidney transplantation ([1]; mouse, in vivo): improves the efficiency of kidney transplantation
2 | S=C(N/N=C1\CCCc2cccnc21)N1CCN(c2ccccn2)CC1 [LX-801] |  |  |  |  |  | Survival ([2]; 1.1 μM): 78.1%; Survival ([2]; 10 μM): 12.7%; Survival ([2]; […]): 58.5%; HMGN1 [3]: 265%
3 | CC1(C)CC[C@]2(NC(=O)C(C)(F)F)CC[C@]3(C)[C@H](C(=O)C=C4[C@@]5(C)C=C(C#N)C(=O)C(C)(C)[C@@H]5CC[C@]43C)[C@@H]2C1 [LX-2101, Omaveloxolone] | 6.8 (±1.4) mm | 49 (±21.8) % | 58 (±9.5) % |  |  | 
4 | COC(=O)[C@]12CCC(C)(C)C[C@H]1[C@H]1C(=O)C=C3[C@@]4(C)C=C(C#N)C(=O)C(C)(C)[C@@H]4CC[C@@]3(C)[C@]1(C)CC2 [LX-2102, Bardoxolone methyl] | 7.1 (±2.6) mm | 58 (±16.1) % | 61 (±14.0) % |  |  | 
5 | CCCC\C=C/C=C/C=C\CCCCCCCC(=O)O [LX-2707, Punicic acid] |  |  |  | 160.1 (±23.1) mmHg | 64 (±8.5) % | 
6 | O=C1C2CCN(CC2)C1CNC(=O)C(F)(F)F (stereo not shown) [LX-5701] | 6.1 (±4.9) mm | 68 (±14.1) % | 62 (±9.8) % | 159.8 (±15.5) mmHg | 73 (±5.2) % | Submesothelial Thickness [7]: 41.8 (±7.5) μm
7 | Cc1cccc([C@H](C)c2cnc[nH]2)c1C [LX-6807, Dexmedetomidine] |  |  |  | 157.8 (±19.3) mmHg | 66 (±5.0) % | 
8 | Tocofersolan [LX-3001] |  |  |  | 172.9 (±14.6) mmHg | 71 (±3.6) % | Survival ([2]; 1.1 μM): 101.6%; Survival ([2]; 10 μM): 22.6%; Survival ([2]; […]): 95.6%; HMGN1 [3]: 301%
